Laboratory results reported in patent US20180133221A1, “ADMINISTRATION OF UBIQUITIN-ACTIVATING ENZYME INHIBITOR AND CHEMOTHERAPEUTIC AGENTS” (Millennium Pharmaceuticals, Inc., priority 2014, published 2018).
Where two headings read alike, the source gives them in different places.

Assays:
[1] = system: CTG-0486 human ovarian xenograft; format: in vivo; details: for Tumor Volume Day 21: in mm³ (unit assumed)
Source text: The CTG-0486 model of human ovarian xenograft model was established from a patient-derived tumor collected during surgery from a person with ovarian cancer (serous adenocarcinoma, metastases to the small bowel). CTG-0486 tumor fragments (approximately 2×2×3 mm^3) are implanted into the subcutaneous space in the right dorsal flank of female Mus musculus/nu/nu mice (age 6-9 weeks, Harlan Laboratories, Madison, Wis., USA) using a 13-gauge trocar needle. When the mean tumor volume reached approximately 260 mm3, the animals were randomized into 8 treatment groups (n=5/group).
[…] The once weekly schedule is also described as every 7 days (Q7D).
(§1) Compound 1 [((1R,2R,3S,4R)-2,3-dihydroxy-4-(2-(3-(trifluoromethylthio)-phenyl)pyrazolo[1,5-a]pyrimidin-7-ylamino)cyclopentyl)methyl sulfamate] is formulated in 10-20% HPbCD in sterile water and administered intravenously (IV) or subcutaneously (SC) on a BIW (twice/week schedule; Monday and Thursday or Tuesday and Friday) for either 2-4 weeks.
(§2) Tumors were measured twice weekly using vernier calipers. Tumor volumes were calculated using the standard formula V=W^2×L/2,). When mean tumor volumes reached approximately 200 mm^3 for PHTX-24C, 220 mm^3 for PHTX-Lu132, 150 mm^3 for CTG-0256, 260 mm^3 for CTG-0486, 185 mm^3 for PHTX-17C, 260 mm^3 for CTG-0165, 150 mm^3 for PHTX-14B in the study of Compound 1 and paclitaxel, 180 mm^3 for PHTX-14B in the study of Compound 1 and docetaxel, 200 mm^3 for SKOV-3, 220 mm^3 for PHTX-02B in the study of Compound 1 and docetaxel, 250 mm^3 for PHTX-02B in the study of Compound 1 and paclitaxel, 195 mm^3 for CTG-0159, 180 mm^3 for CTG-0012 or 150 mm^3 for Calu-6, mice were randomized into groups of n=5-7/arm as described in the tables below, and injected with vehicle, Compound 1 or agents (docetaxel, paclitaxel, oxaliplatin, cisplatin or carboplatin), or the combination of Compound 1 plus one of the agents, at various doses and schedules as described in tables below. Tumor size and body weight were measured approximately twice a week for the duration of the study. Mice are euthanized when their tumor volume reached 10% of their body weight, or when the average tumor volume of a treatment or control group reached approximately 2000 mm^3. Tumor growth continued to be monitored after the dosing period in some studies. Average tumor volume is reported as a function of time for selected arms of selected studies in the Figures.
(§3) Measurements from day 0 to day 14, day 19, day 21, or day 28 are analyzed as specified in Tables below. All tumor volumes have a value of 1 added to them before log10 transformation. For each animal, the log tumor volume at day 0 is subtracted from the log tumor volume on the subsequent days. This difference vs. time is used to calculate an area under the curve (AUC) for each animal using the trapezoid rule. […] The synergy score for the combination of agents A and B is defined as
(§4) 100*(mean(AUCAB)−mean(AUCA)−mean(AUCB)+mean(AUCctl))/mean(AUCctl):
(§5) where AUCAB, AUCA, AUCB, and AUCctl are the AUC values for animals in the combination group, the A group, the B group, and the control group, respectively. The standard error of the synergy score is computed based on the variation in the AUC values among the animals. […] If the P-value is above 0.05, then the combination is considered to be additive. If the P-value is below 0.05, and the synergy score is less than zero, then the combination is considered to be synergistic.

[2] = system: PHTX-17C colorectal carcinoma xenograft; format: in vivo; details: for Tumor Volume Day 21: in mm³ (unit assumed)
Source text: The PHTX-17C colorectal carcinoma xenograft model was established from a patient-derived tumor collected during surgery from a person with moderately differentiated adenocarcinoma.PHTX-17C tumor fragments (approximately 2×2×3 mm^3) were implanted into the subcutaneous space in the right dorsal flank of female nude mice (age 5-7 weeks, Balb/c Nude Mice, Shanghai SINO-British SIPPR/BK Lab Animal Ltd, Shanghai, China) using a 13-gauge trocar. When the mean tumor volume reached approximately 185 mm^3, the animals were randomized into 12 treatment groups (n=5/group).
Oxaliplatin (Jiang Su Geng Rui Pharmaceuticals, Inc.) is formulated in 0.9% saline and administered by IP injection once weekly (QW) at 7.5 or 12.5 mg/kg. The once weekly schedule is also described as every 7 days (Q7D).
as §1, §2, §3, §4, §5

## NS(=O)(=O)OC[C@H]1C[C@@H](Nc2ccnc3cc(-c4cccc(SC(F)(F)F)c4)nn23)[C@H](O)[C@@H]1O [Compound 1, ((1R,2R,3S,4R)-2,3-dihydroxy-4-(2-(3-(trifluoromethylthio)phenyl)pyrazolo[1,5-a]pyrimidin-7-ylamino)cyclopentyl)methyl sulfamate]
[1]; 6.25 mg/kg Compound 1 BIWx3 SC
  Tumor Volume Day 21: 476.9
[1]; 15 mg/kg Compound 1 BIWx3 SC
  Tumor Volume Day 21: 131.9
[1]; 20 mg/kg Compound 1 BIWx3 SC
  Tumor Volume Day 21: 92.7
[1]; 25 mg/kg Compound 1 BIWx3 SC
  Tumor Volume Day 21: 151.7
[1]; 20 and 25 mg/kg doses of Compound 1, SC BIW
  tolerability: not tolerated
[1]; single agent Compound 1 SC at 6.25, 15, 20 and 25 mg/kg BIW for 3 weeks
  anti-tumor activity compared to vehicle control: modest to strong anti-tumor activity
[2]; 20 mg/kg Compound 1 BIWx3 IV
  Tumor Volume Day 21: 1875.6
[2]; 25 mg/kg Compound 1 BIWx3 IV
  Tumor Volume Day 21: 2159.3
[2]; 30 mg/kg Compound 1 BIWx3 IV
  Tumor Volume Day 21: 1612.7
[2]; single agent Compound 1 IV at 20, 25, 30 mg/kg BIW
  anti-tumor activity compared to vehicle control: modest anti-tumor activity
